Patent publication US9000015B2, “Compounds for the treatment of addiction” (Gilead Sciences, Inc., priority 2011, dated 2015)

Assays:
recombinant human ALDH2 = recombinant human ALDH2 (Homo sapiens (Human), UniProt P05091); experiment: ALDH2 assay (NADH formation); assay type: biochemical; details: 60 min pre-incubation, 150 uM formaldehyde, 2.5 mM NAD+; read-out: IC50 HALDH2
Procedure: Standard ALDH2 reaction mixtures contained 150 uM formaldehyde, 2.5 mM NAD^+, 10 mM MgCl2 and 10 nM recombinant human ALDH2 in 50 mM Hepes buffer, pH 7.4, 0.01% Tween 20 in a final volume of 50 ul using 384-well plates. After 60 min of pre-incubation of compound with ALDH2 and formaldehyde, the reaction was started by adding NAD+ and the reaction mixture was allowed to proceed for 90 minutes. Activity of the enzyme was determined by monitoring NADH formation using Perkin-Elmer Envision Reader with excitation and emission wavelengths set at 340 and 460 nm, respectively.
(§1) Note: […] refers to the concentration of a compound that inhibits a reaction by 50%. In the case of competitive inhibition, IC50=2Ki when the substrate is present at the Km concentration, as per the relationship: Ki=IC50/[1+(substrate concentration/Km)].

Male SD rats [1] = experiment: Rat nicotine self administration, acute treatment; assay type: in vivo; details: independent groups
Procedure: (§2) Male SD rats were trained to self administer i.v. nicotine (0.03 mg/kg/inj) daily (Monday to Friday) in standard operant chambers with retractable levers (MED Associates, Inc) as previously published (Levin et al., 2003; Levin et al., 2007). During the daily 45 min session, rats received 0.05 ml infusion of 0.03 mg/kg/infusion of nicotine every time the active lever was pressed. A cue light and tone turned on for 0.5 sec together with the activation of a pump that delivered the nicotine solution. Daily sessions were run for at least 10 days before the initiation of drug testing. Solutions of compounds of Example 2 and Example 5 were prepared fresh daily in Formulation 2B: 25% PEG400/5% Vit E TPGS/1% SLS/69% water with 0.5% Methocel) for oral dosing. Compound of Example 2 doses were administered in a counterbalanced design for testing 1 hr before each nicotine session. Every rat received all drug doses and vehicle in a randomly assigned order. The oral drug administrations were made twice per week.
Compound of Example 5 was tested in a study using 4 independent groups. Each group received either oral vehicle or 1 of the 3 doses of compound of Example 5 (5, 10 or 30 mg-eq/kg). […] The 5 mg/kg dose was ineffective.

HMAO-A = HMAO-A (Homo sapiens (Human), UniProt P21397); experiment: MAO-A assay (luminogenic MAO substrate); assay type: biochemical; details: microsome MAO-A, 160 uM substrate
Procedure: (§3) MAO assays included luminogenic MAO substrate, reaction buffers, Luciferin Detection and the reconstitution buffer with eserase. Standard MAO reaction mixtures included microsome contained MAO-A (2 ug) or MAO-B (10 ug), 160 uM substrate for MAO-A or 16 uM substrate for MAO-B, MAO-A buffer (100 mM Hepes buffer, pH 7.5, 5% glycerol) or MAO-B buffer (100 mM Hepes, pH 7.5, 5% glycerol, 10% dimethyl sulfoxide) in a final volume of 30 ul. After 20 minutes of pre-incubation of the enzyme with compounds, the reaction was initiated by adding enzyme substrate and the reaction was allowed to proceed for 60 minutes. Reconstituted Luciferin Detection Reagent (30 ul) was then added is added to simultaneously stop the MAO reaction and convert the methyl ester derivative to luciferin and produce light. The amount of light produced is directly proportional to the activity of MAO. The mixtures were further incubated for 20 minutes and activity of the enzyme was determined using Perkin-Elmer Envision Reader.
as §1

Male SD rats [2] = experiment: Rat nicotine self administration, 7-day chronic treatment; assay type: in vivo
Procedure: as §2
Upon completion of the acute compound of Example 5 treatment study, the same animals were used to test the effect of 7-day chronic oral administration of compound of Example 5 in the nicotine self administration model. Rats were treated orally with compound of Example 5 (5, 10 or 30 mg-eq/kg) or vehicle 1 hr before nicotine self administration session for 7 consecutive days. […] Similar to the acute treatment, the 5 mg-eq/kg dose was ineffective (FIG. 7). […] Animals in nicotine self administration studies had to reach pre defined criteria (e.g. rat strain, minimum number of nicotine infusions, consistent baseline nicotine self administration throughout the study, patent iv catheters, etc.) to be included in analysis.

[3] = test system: male Sprague Dawley (SD) rats; experiment: Rat cocaine cue reinstatement; assay type: in vivo; details: for inhibition of cocaine cue reinstatement compared to vehicle: 1 hr before session
Procedure: Training of male Sprague Dawley (SD) rats had 3 separate stages. First, during self administration, animals were trained to lever press for cocaine with presentation of concomitant cues associated with drug delivery. Rats that reached criteria for addiction were included in the study. Afterward, during cue extinction, cocaine-cue dependent behavior was extinguished. Lastly, during cocaine cue reinstatement, the effect of compounds was tested on lever presses upon cue presentation (FIG. 2).
Rats were trained to self administer i.v. cocaine (0.35 mg/kg/injection) daily (Monday to Friday) in standard operant chambers with retractable levers (Coulbourn Instruments, PA). During the daily 2 hr session, rats received a 0.05 ml infusion of 0.35 mg/kg cocaine every time the active lever was pressed. A cue light and tone turned on for 2 sec together with activation of a pump that delivered the cocaine solution. Rats were required to maintain an infusion rate of ≧20+ per day for at least 10 days before being moved to extinction training.
During extinction sessions lever presses no longer produced cocaine infusion and cue light/tone presentation was absent. Rats received a maximum of 15 extinction sessions.
On the next day after reaching extinction criteria, rats were treated orally with vehicle (Formulation 2B: 25% PEG400/5% Vit E TPGS/1% SLS/69% water with 0.5% Methocel) or drug (compound of Example 2 or compound of Example 5) before the cue reinstatement session. Cue reinstatement began with a tone and cue light. This 2 hr session was identical to the self-administration session (cue light and tone present upon active lever press) except that no cocaine was delivered. The number of active lever presses was compared to extinction lever responding. This is considered a measure of reinstatement. The next day, rats were returned to extinction sessions for at least 2 or 3 more sessions. Rats then received a second and last reinstatement session with an opposite treatment to the one received on the first reinstatement session (vehicle or drug treatment). […] The light/tone presentation triggers this response and it is interpreted as a measure of reinstatement even though cocaine is not available.

[4] = test system: Alcohol-preferring (iP) male rats; experiment: Rat alcohol self administration; assay type: in vivo; details: 1 hr before session, vs vehicle
Source text: Alcohol-preferring (iP) male rats were trained to daily (Monday to Friday) self-administer alcohol (10% v/v) under operant conditions. A fixed-ratio of 3 (FR3), where rats had to press a lever 3 times to get one drop of alcohol during 20-min sessions was used (Cowen et al, 2005a; Cowen et al., 2005b; Lawrence et al., 2006). Availability of alcohol was conditioned by the presence of an olfactory cue (2 drops of vanilla essence, placed on the bedding of the operant chamber directly under the active lever), plus a 1-sec light stimulus when FR3 was obtained. For each session, total alcohol and water responses were recorded. Following acquisition of lever pressing behavior and stable alcohol self-administration, rats were administered oral vehicle or compound of Example 5 (5, 10 and 30 mg-eq/kg) 1 hr before each session in a counterbalanced order. Every rat received all drug doses and vehicle once per week in a randomly assigned order.

HMAO-B = HMAO-B (Homo sapiens (Human), UniProt P27338); experiment: MAO-B assay (luminogenic MAO substrate); assay type: biochemical; details: microsome MAO-B, 16 uM substrate
Procedure: as §3, §1

HMAO-B, sequence (P27338 whole entry): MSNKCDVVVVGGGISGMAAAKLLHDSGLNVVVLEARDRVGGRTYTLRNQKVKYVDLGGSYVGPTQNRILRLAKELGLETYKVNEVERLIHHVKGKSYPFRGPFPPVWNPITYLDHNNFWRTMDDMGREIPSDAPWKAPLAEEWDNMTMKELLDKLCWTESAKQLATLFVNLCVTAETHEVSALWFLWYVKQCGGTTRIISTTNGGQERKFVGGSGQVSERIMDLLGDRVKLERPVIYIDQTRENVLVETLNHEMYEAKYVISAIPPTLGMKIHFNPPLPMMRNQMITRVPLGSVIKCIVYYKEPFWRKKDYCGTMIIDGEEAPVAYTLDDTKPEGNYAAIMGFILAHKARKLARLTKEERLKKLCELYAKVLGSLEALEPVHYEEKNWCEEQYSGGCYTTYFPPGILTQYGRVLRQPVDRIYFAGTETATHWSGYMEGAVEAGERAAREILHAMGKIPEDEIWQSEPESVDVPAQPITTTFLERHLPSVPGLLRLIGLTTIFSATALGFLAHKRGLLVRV
recombinant human ALDH2, sequence (P05091 18-517): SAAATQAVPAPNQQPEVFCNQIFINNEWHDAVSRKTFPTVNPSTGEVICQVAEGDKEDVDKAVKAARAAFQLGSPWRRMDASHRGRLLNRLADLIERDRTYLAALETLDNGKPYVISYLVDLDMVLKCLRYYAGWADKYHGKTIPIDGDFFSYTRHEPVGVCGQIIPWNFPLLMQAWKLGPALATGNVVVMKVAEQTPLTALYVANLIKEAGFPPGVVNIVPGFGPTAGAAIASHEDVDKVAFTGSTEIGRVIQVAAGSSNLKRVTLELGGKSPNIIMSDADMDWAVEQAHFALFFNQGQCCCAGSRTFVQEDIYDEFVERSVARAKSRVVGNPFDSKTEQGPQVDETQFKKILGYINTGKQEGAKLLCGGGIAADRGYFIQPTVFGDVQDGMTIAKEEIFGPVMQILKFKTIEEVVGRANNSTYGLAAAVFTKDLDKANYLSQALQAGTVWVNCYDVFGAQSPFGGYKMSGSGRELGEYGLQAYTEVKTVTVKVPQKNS
HMAO-A, sequence (P21397 whole entry): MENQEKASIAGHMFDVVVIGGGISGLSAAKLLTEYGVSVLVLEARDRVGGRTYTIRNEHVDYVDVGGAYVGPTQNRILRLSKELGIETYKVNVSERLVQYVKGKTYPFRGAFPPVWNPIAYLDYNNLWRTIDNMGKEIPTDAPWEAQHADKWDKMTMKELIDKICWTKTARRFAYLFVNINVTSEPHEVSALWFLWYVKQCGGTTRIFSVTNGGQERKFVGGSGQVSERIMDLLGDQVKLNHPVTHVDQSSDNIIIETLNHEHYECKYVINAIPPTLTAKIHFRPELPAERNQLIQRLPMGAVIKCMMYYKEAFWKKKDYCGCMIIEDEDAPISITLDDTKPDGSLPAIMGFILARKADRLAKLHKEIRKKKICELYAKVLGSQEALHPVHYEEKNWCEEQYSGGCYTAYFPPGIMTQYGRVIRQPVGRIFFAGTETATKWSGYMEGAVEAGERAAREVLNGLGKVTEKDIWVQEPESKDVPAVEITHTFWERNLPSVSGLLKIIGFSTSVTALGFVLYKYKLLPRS

O=C(NCc1ccc(-c2ccn(COP(=O)(O)O)c(=O)c2)cc1)c1c(Cl)cccc1Cl [Compound 14, phosphoric acid mono-(4-{4-[(2,6-dichloro-benzoylamino)-methyl]-phenyl}-2-oxo-2H-pyridin-1-ylmethyl) ester]
IC50 (recombinant human ALDH2): > 10 µM | effect on number of nicotine infusions compared to vehicle (Male SD rats [1]; 5 mg-eq/kg oral): ineffective | inhibition of number of nicotine infusions compared to vehicle (Male SD rats [1]; 10 mg-eq/kg oral): 51% | inhibition of number of nicotine infusions compared to vehicle (Male SD rats [1]; 30 mg-eq/kg oral): 68% | IC50 (HMAO-A): > 130 µM | effect on number of nicotine infusions compared to vehicle (Male SD rats [2]; 5 mg-eq/kg oral, 7 consecutive days): ineffective | inhibition of number of nicotine infusions compared to vehicle (Male SD rats [2]; 10 mg-eq/kg oral, 7 consecutive days): 48% | inhibition of number of nicotine infusions compared to vehicle (Male SD rats [2]; 30 mg-eq/kg oral, 7 consecutive days): 62% | tolerance to the therapeutic effect (Male SD rats [2]; 7-day chronic oral administration, data not shown): no development of tolerance | inhibition of cocaine cue reinstatement compared to vehicle ([3]; 2.5 mg-eq/kg oral, p>0.05, N.S.): 30% | effect on cocaine cue reinstatement versus vehicle ([3]; 2.5 mg-eq/kg oral, lowest dose tested): not significantly different from vehicle | inhibition of cocaine cue reinstatement compared to vehicle ([3]; 5 mg-eq/kg oral): 59% | inhibition of cocaine cue reinstatement compared to vehicle ([3]; 10 mg-eq/kg oral): 55% | inhibition of cocaine cue reinstatement compared to vehicle ([3]; 30 mg-eq/kg oral): 50% | number of lever presses for alcohol ([4]; 10 mg-eq/kg oral): significantly decreased | number of lever presses for alcohol ([4]; 30 mg-eq/kg oral): significantly decreased | IC50 (HMAO-B): > 130 µM
